Source: ChEMBL document CHEMBL3885881, “DrugMatrix”

Species on record: Rattus norvegicus
Format: toxicity, organism-based, Sprague-Dawley
Conditions: in vivo, po, route oral GAVAGE, […]; for ABSOLUTE EOSINOPHIL / ABSOLUTE LYMPHOCYTE / ABSOLUTE MONOCYTE / ABSOLUTE SEGMENTED NEUTROPHIL / BASOPHIL / EOSINOPHIL / ERYTHROCYTE COUNT / HEMATOCRIT / HEMOGLOBIN / LEUKOCYTE COUNT / LYMPHOCYTE / MEAN CORPUSCULAR HEMOGLOBIN / MEAN CORPUSCULAR HEMOGLOBIN CONCENTRATION / MEAN CORPUSCULAR VOLUME / MONOCYTE / NEUTROPHIL / NUCLEATED RED BLOOD CELLS / PLATELET COUNT: tissue Blood; for ALANINE AMINOTRANSFERASE / ALBUMIN / ALKALINE PHOSPHATASE / ASPARTATE AMINOTRANSFERASE / BLOOD UREA NITROGEN / CARBON DIOXIDE / CHLORIDE / CHOLESTEROL / CREATINE PHOSPHOKINASE / CREATININE / GLUCOSE / LACTATE DEHYDROGENASE / LIPASE / PHOSPHORUS / POTASSIUM / SODIUM / TOTAL BILIRUBIN / TOTAL PROTEIN / URIC ACID: tissue Plasma
[1] = 30 mg/kg, 24 h, dose level Low, time 1 day
[2] = 60 mg/kg, 6 h, dose level High, time 0.25 day
[3] = 60 mg/kg, 24 h, dose level High, time 1 day

Description: DrugMatrix - Regimen: Single

## S=C=Nc1cccc2ccccc12 [1-NAPHTHYLISOTHIOCYANATE]
[1]
  ABSOLUTE EOSINOPHIL: 0 CELLS/uL
  ABSOLUTE LYMPHOCYTE: 8784 CELLS/uL
  ABSOLUTE MONOCYTE: 359.5 CELLS/uL
  ABSOLUTE SEGMENTED NEUTROPHIL: 2189.83 CELLS/uL
  BASOPHIL: 0%
  EOSINOPHIL: 0%
  ERYTHROCYTE COUNT: 5.45 x10E6/uL
  HEMATOCRIT: 34.5%
  HEMOGLOBIN: 13.67 G/DL
  LEUKOCYTE COUNT: 11.33 x10E3/uL
  LYMPHOCYTE: 78.33%
  MEAN CORPUSCULAR HEMOGLOBIN: 25.1 pg
  MEAN CORPUSCULAR HEMOGLOBIN CONCENTRATION: 39.62 G/DL
  MEAN CORPUSCULAR VOLUME: 63.35 fL
  MONOCYTE: 2.83%
  NEUTROPHIL: 18.83%
  NUCLEATED RED BLOOD CELLS: 0 /100WBC
  PLATELET COUNT: 1092.83 x10E3/uL
  ALANINE AMINOTRANSFERASE: 122 u/L
  ALBUMIN: 3.92 G/DL
  ALKALINE PHOSPHATASE: 386.33 u/L
  ASPARTATE AMINOTRANSFERASE: 211 u/L
  BLOOD UREA NITROGEN: 11.67 mg/dL
  CARBON DIOXIDE: 35.83 mmol/L
  CHLORIDE: 97.33 MEQ/L
  CHOLESTEROL: 83.5 mg/dL
  CREATINE PHOSPHOKINASE: 327.33 u/L
  CREATININE: 0.3 mg/dL
  GLUCOSE: 139.33 mg/dL
  LACTATE DEHYDROGENASE: 171 u/L
  LIPASE: 9.33 u/L
  PHOSPHORUS: 9.87 mg/dL
  POTASSIUM: 4.44 MEQ/L
  SODIUM: 145.25 MEQ/L
  TOTAL BILIRUBIN: 1.02 mg/dL
  TOTAL PROTEIN: 6.05 G/DL
  URIC ACID: 0.5 mg/dL
[2]
  ABSOLUTE EOSINOPHIL: 98.5 CELLS/uL
  ABSOLUTE LYMPHOCYTE: 11852.33 CELLS/uL
  ABSOLUTE MONOCYTE: 375.83 CELLS/uL
  ABSOLUTE SEGMENTED NEUTROPHIL: 1556.67 CELLS/uL
  BASOPHIL: 0%
  EOSINOPHIL: 0.67%
  ERYTHROCYTE COUNT: 5.41 x10E6/uL
  HEMATOCRIT: 36.93%
  HEMOGLOBIN: 13.93 G/DL
  LEUKOCYTE COUNT: 13.88 x10E3/uL
  LYMPHOCYTE: 84.83%
  MEAN CORPUSCULAR HEMOGLOBIN: 25.75 pg
  MEAN CORPUSCULAR HEMOGLOBIN CONCENTRATION: 37.73 G/DL
  MEAN CORPUSCULAR VOLUME: 68.25 fL
  MONOCYTE: 2.67%
  NEUTROPHIL: 11.83%
  NUCLEATED RED BLOOD CELLS: 0 /100WBC
  PLATELET COUNT: 1029 x10E3/uL
  ALANINE AMINOTRANSFERASE: 53.6 u/L
  ALBUMIN: 4.36 G/DL
  ALKALINE PHOSPHATASE: 315.4 u/L
  ASPARTATE AMINOTRANSFERASE: 106 u/L
  BLOOD UREA NITROGEN: 9.8 mg/dL
  CARBON DIOXIDE: 17.2 mmol/L
  CHLORIDE: 104.6 MEQ/L
  CHOLESTEROL: 74.6 mg/dL
  CREATINE PHOSPHOKINASE: 475 u/L
  CREATININE: 0.21 mg/dL
  GLUCOSE: 258.8 mg/dL
  LACTATE DEHYDROGENASE: 229.4 u/L
  LIPASE: 11 u/L
  PHOSPHORUS: 16.5 mg/dL
  POTASSIUM: 5.82 MEQ/L
  SODIUM: 145.04 MEQ/L
  TOTAL BILIRUBIN: 0.22 mg/dL
  TOTAL PROTEIN: 5.82 G/DL
  URIC ACID: 2.54 mg/dL
[3]
  ABSOLUTE EOSINOPHIL: 30 CELLS/uL
  ABSOLUTE LYMPHOCYTE: 8567.5 CELLS/uL
  ABSOLUTE MONOCYTE: 316 CELLS/uL
  ABSOLUTE SEGMENTED NEUTROPHIL: 2953.17 CELLS/uL
  BASOPHIL: 0%
  EOSINOPHIL: 0.33%
  ERYTHROCYTE COUNT: 5.57 x10E6/uL
  HEMATOCRIT: 34.8%
  HEMOGLOBIN: 13.72 G/DL
  LEUKOCYTE COUNT: 11.87 x10E3/uL
  LYMPHOCYTE: 71.17%
  MEAN CORPUSCULAR HEMOGLOBIN: 24.67 pg
  MEAN CORPUSCULAR HEMOGLOBIN CONCENTRATION: 39.42 G/DL
  MEAN CORPUSCULAR VOLUME: 62.55 fL
  MONOCYTE: 2.67%
  NEUTROPHIL: 25.83%
  NUCLEATED RED BLOOD CELLS: 0 /100WBC
  PLATELET COUNT: 1101.5 x10E3/uL
  ALANINE AMINOTRANSFERASE: 142.33 u/L
  ALBUMIN: 3.88 G/DL
  ALKALINE PHOSPHATASE: 513.83 u/L
  ASPARTATE AMINOTRANSFERASE: 288 u/L
  BLOOD UREA NITROGEN: 11.17 mg/dL
  CARBON DIOXIDE: 34.17 mmol/L
  CHLORIDE: 95.83 MEQ/L
  CHOLESTEROL: 118 mg/dL
  CREATINE PHOSPHOKINASE: 254.17 u/L
  CREATININE: 0.34 mg/dL
  GLUCOSE: 133.33 mg/dL
  LACTATE DEHYDROGENASE: 241.83 u/L
  LIPASE: 80.33 u/L
  PHOSPHORUS: 10.95 mg/dL
  POTASSIUM: 3.66 MEQ/L
  SODIUM: 144.63 MEQ/L
  TOTAL BILIRUBIN: 2.2 mg/dL
  TOTAL PROTEIN: 6.13 G/DL
  URIC ACID: 0.45 mg/dL
